Test results taken from patent US6593342B1, “Pharmaceutical compositions comprising 2-quinolones” (Laboratoire L. Lafon, priority 1998, dated 2003).

Tested on: hormone-sensitive mouse mammary adenocarcinoma MXT (HS-MXT)
Test: In vivo antitumor activity, mouse mammary adenocarcinoma HS-MXT
Procedure: 4.—In Vivo Antitumor Activity in Combination With a Cytotoxic Agent
The tests were carried out on models of:
hormone-sensitive mouse mammary adenocarcinoma MXT (HS-MXT),
in the presence or absence of cytotoxic agents such as cyclophosphamide, etoposide, doxorubicin or vincristine.
When the MTD value of a product was determined, its in vivo antitumor activity was characterized at doses of MTD/2, MTD/4 and MTD/8 on the model of mouse mammary adenocarcinoma HS-MXT and on the model of lymphoma P 388.
In all the examples presented below, irrespective of the model (mammary adenocarcinoma HS-MXT or lymphoma P 388), the control condition is represented by a batch of 9 mice to which is administered for 5 consecutive weeks and at a rate of 5 administrations (Monday, Tuesday, Wednesday, Thursday and Friday) per week a volume of 0.2 ml of physiological saline containing the solvent used to dissolve the various compounds of formulae (I) and (Ia) used.
The following parameters were determined in these tests:
i)—The survival rate of the mice
This survival rate was calculated in the form of a ratio T/C:
This ratio represents the average survival time of the median mouse from the batch of treated mice relative to the average survival time of the median mouse from the batch of control mice. Thus, a molecule induces a significant (P<0.05) increase in the survival of the animals when the index T/C exceeds 130%. Conversely, it has a toxic effect when this value of T/C is less than 70%.
ii)—The tumor growth [lacuna] by measuring the area of the grafted HS-MXT or P 388 tumors twice a week (Monday and Friday). This area is calculated by multiplying the values of the largest two perpendicular axes of the tumor. The value of these axes is measured using a sliding caliper.
The model of hormone-sensitive MXT (HS-MXT) mouse mammary adenocarcinoma grafted onto 4- to 6-week-old B6D2F1/JIco mice is derived from the milk ducts of the mammary gland (Watson C. et al. Cancer Res. 1977; 37: 3344-48).
Compound 1 is administered alone. The first injection of the product is carried out on the seventh day post-grafting (D7) for four consecutive weeks at a rate of 5 injections per week (Monday, Tuesday, Wednesday, Thursday and Friday) and at a dose of 20 mg/kg.
Cyclophosphamide (CPA) is administered alone. The first injection of the product is carried out on the fourteenth day post-grafting (D14) for three consecutive weeks at a rate of 3 injections per week (Monday, Wednesday and Friday) and at a dose of 10 mg/kg.
Compound 1 is co-administered with cyclophosphamide. In this case, the first injection of compound 1 is carried out on the seventh day post-grafting (D7) for four consecutive weeks at a rate of 5 injections per week (Monday, Tuesday, Wednesday, Thursday and Friday) at a dose of 20 mg/kg, and the first injection of cyclophosphamide is carried out on the fourteenth day post-grafting (D14) for three consecutive weeks at a rate of 3 injections per week (Monday, Wednesday and Friday) at a dose of 10 mg/kg.
Etoposide (ETO) is administered alone. The first injection of the product is carried out on the fourteenth day post-grafting (D14) for three consecutive weeks at a rate of 3 injections per week (Monday, Wednesday and Friday) and at a dose of 10 mg/kg.
Doxorubicin (DOX) is administered alone. The first injection of the product is carried out on the fourteenth day post-grafting (D14) for three consecutive weeks at a rate of 3 injections per week (Monday, Wednesday and Friday) and at a dose of 5 mg/kg.
Compound 1 is co-administered with etoposide.

In the case of `COc1ccc(-c2cc3c(OC)cc(OC)cc3[nH]c2=O)cc1` [CRL8246, 5,7-Dimethoxy-3-(4-methoxyphenyl)-1,2-dihydro-2-quinolinone], the “T/C (survival)” value (Table IV, HS-MXT in B6D2F1/JIco mice, compound 1 20 mg/kg 5 injections/week from D7, 4 weeks, CPA 10 mg/kg 3 injections/week from D14, 3 weeks) is reported as 100%, the “T/C (survival)” value (Table V, HS-MXT in B6D2F1/JIco mice, compound 1 20 mg/kg 5/week from D7, 4 weeks, ETO 10 mg/kg or DOX 5 mg/kg 3/week from D14, 3 weeks) is reported as 95% and the “Tumor area, reduction (−) or increase (+) compared with control” value (Table VI, HS-MXT tumors, 31st day after graft, 19 administrations of compound 1 (20 mg/kg), 8 of cyclophosphamide (10 mg/kg)) is reported as −19.5%.

`COc1ccc(-c2cc3c(OC)cc(OC)cc3n(CCc3nnn[nH]3)c2=O)cc1` [CRL8256, 1-[2-(1H-1,2,3,4-Tetrazol-5-yl)ethyl]-5,7-dimethoxy-3-(4-methoxyphenyl)-1,2-dihydro-2-quinolinone] was tested, and the “T/C (survival)” value (Table VII, HS-MXT, compound 21 40 mg/kg 5/week from D7, 5 weeks, ETO 10 mg/kg 3/week from D7, 3 weeks) was 110%.
